The text below walks through data of publication PMC10165928 (Journal of Enzyme Inhibition and Medicinal Chemistry, 2023).

One test has as its target T1, HDAC10 (Homo sapiens, UniProt Q969S8).
T1 sequence (Q969S8 1-669): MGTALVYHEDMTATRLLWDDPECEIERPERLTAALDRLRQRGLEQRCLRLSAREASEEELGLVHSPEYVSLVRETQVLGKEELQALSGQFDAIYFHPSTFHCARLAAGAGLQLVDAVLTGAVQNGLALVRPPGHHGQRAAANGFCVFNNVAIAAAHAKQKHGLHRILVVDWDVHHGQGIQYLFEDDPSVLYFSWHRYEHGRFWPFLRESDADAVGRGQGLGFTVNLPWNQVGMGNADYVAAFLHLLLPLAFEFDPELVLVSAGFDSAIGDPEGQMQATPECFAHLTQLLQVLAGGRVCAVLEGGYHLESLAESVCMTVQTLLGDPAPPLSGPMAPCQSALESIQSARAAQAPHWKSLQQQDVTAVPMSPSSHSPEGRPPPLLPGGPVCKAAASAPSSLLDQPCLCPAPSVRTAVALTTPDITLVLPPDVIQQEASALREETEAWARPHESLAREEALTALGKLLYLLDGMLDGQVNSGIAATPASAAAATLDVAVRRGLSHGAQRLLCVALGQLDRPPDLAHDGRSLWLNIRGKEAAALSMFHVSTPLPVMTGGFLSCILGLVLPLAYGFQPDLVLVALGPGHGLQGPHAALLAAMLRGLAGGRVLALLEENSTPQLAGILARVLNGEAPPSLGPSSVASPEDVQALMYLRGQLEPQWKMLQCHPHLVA
In words: In vitro HDAC10 inhibition assay. Type of test: biochemical.

In test [1] the test system is colon cancer HCT-116 cells. Nature of the test: MTT cell growth inhibition assay, HCT-116. Type of test: cell-based, human. Particulars: for IC50: Homo sapiens, HCT-116, 72 h, read-out: IC50 HCT-116 cells.
The subject of test [2] is promyelocytic leukaemia HL-60 cells. Nature of the test: MTT cell growth inhibition assay, HL-60. Type of test: cell-based. Conditions: Homo sapiens, HL-60, 72 h, read-out: IC50 HL-60 cells.
Test [3] concerns normal human liver L-O2 cells. In words: In vitro toxicity test. Conditions: for IC50: Homo sapiens, L02, 72 h, read-out: IC50 L-O2 cells; for SI (selectivity index): ratio of IC50 of L-O2 cells divided by that of HL-60 cells. Type of test: cell-based.
Another test has as its target HDAC1 (Homo sapiens, UniProt Q13547). Nature of the test: In vitro HDAC1 inhibition assay. Type of test: biochemical. Particulars: for IC50 HDAC1: mean ± SEM of three independent assays, NA: IC50 not apparent even with the compound tested >10 μM; for SI (selectivity index): ratio of IC50 of HDAC6 divided by that of HDAC1.
The next test has as its target T2, HDAC6 (Homo sapiens, UniProt Q9UBN7).
T2 sequence (Q9UBN7 1-1215): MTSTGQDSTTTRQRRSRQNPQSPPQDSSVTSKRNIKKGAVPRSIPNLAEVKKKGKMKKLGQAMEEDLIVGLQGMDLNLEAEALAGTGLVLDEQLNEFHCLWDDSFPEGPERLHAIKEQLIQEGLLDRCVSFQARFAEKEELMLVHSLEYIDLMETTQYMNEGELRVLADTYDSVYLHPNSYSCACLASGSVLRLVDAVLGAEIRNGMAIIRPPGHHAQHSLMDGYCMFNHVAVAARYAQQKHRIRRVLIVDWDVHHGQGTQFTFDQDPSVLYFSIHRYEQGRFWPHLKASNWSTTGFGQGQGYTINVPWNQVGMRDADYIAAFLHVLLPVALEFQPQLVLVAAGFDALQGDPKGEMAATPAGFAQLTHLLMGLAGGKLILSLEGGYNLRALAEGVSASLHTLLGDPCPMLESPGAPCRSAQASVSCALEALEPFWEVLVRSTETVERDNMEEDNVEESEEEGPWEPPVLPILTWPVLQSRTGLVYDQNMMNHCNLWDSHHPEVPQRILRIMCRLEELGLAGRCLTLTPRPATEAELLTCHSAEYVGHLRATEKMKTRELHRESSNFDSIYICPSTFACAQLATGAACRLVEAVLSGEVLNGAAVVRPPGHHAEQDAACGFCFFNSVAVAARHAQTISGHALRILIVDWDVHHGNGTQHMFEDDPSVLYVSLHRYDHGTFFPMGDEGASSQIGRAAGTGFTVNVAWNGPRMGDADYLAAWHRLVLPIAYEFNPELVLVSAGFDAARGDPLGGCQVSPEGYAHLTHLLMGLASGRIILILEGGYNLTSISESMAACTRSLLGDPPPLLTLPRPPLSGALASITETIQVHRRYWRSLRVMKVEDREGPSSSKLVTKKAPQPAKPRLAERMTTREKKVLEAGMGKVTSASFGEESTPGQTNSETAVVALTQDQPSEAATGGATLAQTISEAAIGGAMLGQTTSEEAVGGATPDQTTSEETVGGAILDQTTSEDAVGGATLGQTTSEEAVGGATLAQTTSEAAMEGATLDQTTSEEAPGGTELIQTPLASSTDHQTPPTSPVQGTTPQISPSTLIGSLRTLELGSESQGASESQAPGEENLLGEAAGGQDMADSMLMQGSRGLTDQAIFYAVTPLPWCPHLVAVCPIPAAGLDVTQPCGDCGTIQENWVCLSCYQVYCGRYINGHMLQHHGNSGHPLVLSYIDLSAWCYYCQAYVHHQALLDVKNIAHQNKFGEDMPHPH
In words: In vitro HDAC6 inhibition assay. Type of test: biochemical. Particulars: mean ± SEM of three independent assays; NA: IC50 not apparent even with the compound tested >10 μM.

The target in a further test is HDAC3 (Homo sapiens, UniProt O15379). Nature of the test: In vitro HDAC3 inhibition assay. Type of test: biochemical.
Another test concerns the target T3, HDAC8 (Homo sapiens, UniProt Q9BY41).
T3 sequence (Q9BY41 1-377): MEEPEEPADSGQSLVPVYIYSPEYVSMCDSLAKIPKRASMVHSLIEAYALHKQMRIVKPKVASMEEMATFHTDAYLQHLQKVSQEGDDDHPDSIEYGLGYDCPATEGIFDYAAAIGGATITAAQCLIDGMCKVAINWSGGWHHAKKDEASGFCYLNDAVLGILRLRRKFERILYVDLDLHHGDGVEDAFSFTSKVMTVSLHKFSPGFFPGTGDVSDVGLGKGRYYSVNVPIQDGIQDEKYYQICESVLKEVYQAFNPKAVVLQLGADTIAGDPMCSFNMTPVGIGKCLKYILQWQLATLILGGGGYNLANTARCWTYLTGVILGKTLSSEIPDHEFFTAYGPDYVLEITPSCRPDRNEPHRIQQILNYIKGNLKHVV
In words: In vitro HDAC8 inhibition assay. Type of test: biochemical. Particulars: for IC50 HDAC8: mean ± SEM of three independent assays.

Test [4] relates to HL-60 cells. In words: Western blot analysis in HL-60 cells. Type of test: cell-based, human. Particulars: 48 h; for histone H3 acetylation (Ac-H3) level: different concentrations; for expression of Rb / expression of p-Rb / expression of γ-H2AX: increasing concentration. Background: In western blotting, separated proteins are transferred to a membrane and probed.
For test [5], the system named is HL-60 cells. In words: Cell cycle analysis by flow cytometry. Type of test: cell-based, human. Conditions: HL-60, 48 h. On the technique in general: Flow cytometry measures light scatter and fluorescence of single cells or particles in a stream.
In test [6] the test system is HL-60 cells. In words: Cell apoptosis detection. Type of test: cell-based, human. Particulars: HL-60, 48 h.

The IC50 is the midpoint of a concentration-inhibition curve.

Entries after “also recorded” stand apart in the source; their conditions may differ. A value given as a limit tells only on which side of the number the result lay.

Chain of HDAC1 (Q13547 whole entry): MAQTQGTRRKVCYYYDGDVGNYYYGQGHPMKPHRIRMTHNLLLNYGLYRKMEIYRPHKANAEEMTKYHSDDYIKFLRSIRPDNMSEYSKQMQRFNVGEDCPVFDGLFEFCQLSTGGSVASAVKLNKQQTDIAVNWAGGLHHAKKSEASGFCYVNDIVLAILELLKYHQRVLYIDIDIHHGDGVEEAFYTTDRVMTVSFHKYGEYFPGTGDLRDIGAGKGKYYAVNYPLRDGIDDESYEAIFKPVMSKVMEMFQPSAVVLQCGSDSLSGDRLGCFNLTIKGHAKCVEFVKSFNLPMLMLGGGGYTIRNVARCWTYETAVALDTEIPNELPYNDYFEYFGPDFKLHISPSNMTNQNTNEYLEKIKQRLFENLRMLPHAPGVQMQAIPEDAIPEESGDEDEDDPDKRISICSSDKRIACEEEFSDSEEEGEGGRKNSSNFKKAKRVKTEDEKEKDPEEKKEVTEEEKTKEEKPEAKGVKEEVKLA
Chain of HDAC3 (O15379 whole entry): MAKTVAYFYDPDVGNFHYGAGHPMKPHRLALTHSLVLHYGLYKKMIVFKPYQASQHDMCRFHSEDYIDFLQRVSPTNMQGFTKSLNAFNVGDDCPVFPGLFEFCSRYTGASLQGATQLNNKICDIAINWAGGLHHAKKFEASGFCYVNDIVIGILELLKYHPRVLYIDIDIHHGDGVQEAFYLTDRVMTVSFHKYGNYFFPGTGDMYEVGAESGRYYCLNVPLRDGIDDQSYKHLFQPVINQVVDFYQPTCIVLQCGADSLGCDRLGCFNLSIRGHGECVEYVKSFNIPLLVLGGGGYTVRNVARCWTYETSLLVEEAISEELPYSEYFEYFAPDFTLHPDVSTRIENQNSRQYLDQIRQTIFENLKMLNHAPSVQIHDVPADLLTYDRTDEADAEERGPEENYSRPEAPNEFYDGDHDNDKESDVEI
Chain of HDAC3 (Q9Y618 395-489 partner limits assumed): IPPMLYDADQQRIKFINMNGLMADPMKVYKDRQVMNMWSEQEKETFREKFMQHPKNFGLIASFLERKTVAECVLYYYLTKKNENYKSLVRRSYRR

For `Nc1cc(F)ccc1NC(=O)c1ccc(CNC(=O)/C=C/c2cccnc2)cc1` [Chidamide, chidamide, reference compound], the IC50 against HDAC10 came to 0.259 ± 0.023 µM; in test [1], 3.86 ± 1.08 µM; in test [2] it was 0.86 ± 0.07 µM; in [3], 8.87 ± 0.93 µM.

Regarding `Nc1cc(F)ccc1NC(=O)c1ccc(Cl)c2c(=O)c3cccc([N+](=O)[O-])c3[nH]c12` [Compound 8a, N-(2-amino-4-fluorophenyl)-1-chloro-5-nitro-9-oxo-9,10-dihydroacridine-4-carboxamide], the “IC50 HDAC1” value at HDAC1 is reported as “completely lost”.

For the compound `COc1cccc2c(=O)c3c(Cl)ccc(C(=O)NCCCC(=O)Nc4ccccc4N)c3[nH]c12` [Compound 11a, N-(4-((2-aminophenyl)amino)-4-oxobutyl)-1-chloro-5-methoxy-9-oxo-9,10-dihydroacridine-4-carboxamide], the results for the half-inhibitory concentration (IC50) (against HDAC1; in test [2]) were 4.09 ± 0.273 µM and 13.2 ± 2.43 µM, respectively. Also, the “SI (selectivity index)” value on HDAC1 was above 2.4. Besides, in [1] (MTT, 72 h, mean ± SEM of three assays, NA: IC50 not apparent even with the compound tested >50 μM), the “IC50 HCT-116 cells” value is recorded as “no anti-proliferation activity”.

In the case of `COc1cccc2c(=O)c3c(Cl)ccc(C(=O)NCCCCCC(=O)Nc4ccccc4N)c3[nH]c12` [Compound 11b, N-(6-((2-aminophenyl)amino)-6-oxohexyl)-1-chloro-5-methoxy-9-oxo-9,10-dihydroacridine-4-carboxamide], the IC50 against HDAC1 was 0.227 ± 0.009 µM; against HDAC3, 0.418 ± 0.04 µM; at HDAC8 it was above 5 µM; against HDAC10, 0.387 ± 0.064 µM; in test [1], 3.17 ± 0.26 µM; in test [2], 0.56 ± 0.03 µM. The IC50 in [3] amounted to 5 ± 0.33 µM. The “SI (selectivity index)” value at HDAC1 was above 44.1; in test [3], 8.9. Also, at HDAC6, the “IC50 HDAC6” value is given as “no inhibitory effect; also recorded: no inhibitory activity”. Also, the “IC50 HDAC8” value on HDAC8 is reported as “no inhibitory effect; also recorded: no inhibitory activity”. Also, in the test with HL-60 cells [4], the “histone H3 acetylation (Ac-H3) level” value is on record as “significantly induced histone H3 acetylation”. For the same compound, the “expression of Rb” value in the test on HL-60 cells [4] is “significantly down-regulated”. The “expression of p-Rb” value with HL-60 cells [4] was “significantly down-regulated”. In the test with HL-60 cells [4], the “expression of γ-H2AX” value is recorded as “up-regulated”. For the same compound, the “proportion of cells in S phase” value with HL-60 cells [5] (0.1 μM) is listed as 49.1%; with HL-60 cells [5] (0.5 μM), 50.4%; with HL-60 cells [5] (2.5 μM) it was 59.2%. In addition, in the test on HL-60 cells [6] (2.5 μM), the “proportion of apoptotic cells” value is given as 85.8%.

On to `COc1cccc2c(=O)c3c(Cl)ccc(C(=O)NCCCCCCC(=O)Nc4ccccc4N)c3[nH]c12` [Compound 11c, N-(7-((2-aminophenyl)amino)-7-oxoheptyl)-1-chloro-5-methoxy-9-oxo-9,10-dihydroacridine-4-carboxamide], for which the IC50 on HDAC1 is 0.087 ± 0.003 µM; against HDAC3, 0.225 ± 0.009 µM; against HDAC8, above 5 µM; against HDAC10, 0.177 ± 0.008 µM; in test [1] it was 4.21 ± 0.57 µM; in test [2], 1.24 ± 0.08 µM. For the same compound, the IC50 in test [3] is 7.19 ± 1.52 µM. Besides, the “SI (selectivity index)” value on HDAC1 is above 114.9; in test [3], 5.8. Besides, the “IC50 HDAC6” value on HDAC6 is given as “no inhibitory effect; also recorded: no inhibitory activity”. For the same compound, the “IC50 HDAC8” value against HDAC8 is on record as “no inhibitory effect; also recorded: no inhibitory activity”. For the same compound, in the test with HL-60 cells [4], the “histone H3 acetylation (Ac-H3) level” value was “significantly induced histone H3 acetylation”. Moreover, the “expression of Rb” value in the test with HL-60 cells [4] is “significantly down-regulated”. Moreover, in the test with HL-60 cells [4], the “expression of p-Rb” value is “significantly down-regulated”. Also, the “expression of γ-H2AX” value in the test on HL-60 cells [4] is on record as “up-regulated”. Besides, the results for the “proportion of cells in S phase” value in the test on HL-60 cells [5] (0.2 μM), with HL-60 cells [5] (1 μM) and in the test on HL-60 cells [5] (5 μM) were 48.4%, 52.7% and 58.4%, respectively. Also, the “proportion of apoptotic cells” value in the test with HL-60 cells [6] (5 μM) is 70.3%.

Regarding `COc1cccc2c(=O)c3c(Cl)ccc(C(=O)NCCCCCCC(=O)Nc4ccc(F)cc4N)c3[nH]c12` [Compound 11d, N-(7-((2-amino-4-fluorophenyl)amino)-7-oxoheptyl)-1-chloro-5-methoxy-9-oxo-9,10-dihydroacridine-4-carboxamide], the IC50 was determined as 0.247 ± 0.038 µM against HDAC1, 7.51 ± 0.74 µM in test [1] and 10.2 ± 3.2 µM in test [2]. Moreover, on HDAC1, the “SI (selectivity index)” value was above 40.5.

`Cc1c(C(=O)Nc2ccccc2N)cc(Br)c2c(=O)c3ccccc3[nH]c12` [Compound 16a, N-(2-aminophenyl)-1-bromo-4-methyl-9-oxo-9,10-dihydroacridine-3-carboxamide]: the “IC50 HDAC1” value on HDAC1 is “completely lost”.

Take `Cc1c(C(=O)Nc2ccc(Br)cc2N)cc(Br)c2c(=O)c3ccccc3[nH]c12` [Compound 16b, N-(2-amino-4-bromophenyl)-1-bromo-4-methyl-9-oxo-9,10-dihydroacridine-3-carboxamide]: the “IC50 HDAC1” value on HDAC1 was “completely lost”.
